This is an account of results in US6110888A, “Substituted phenols as fragrance, flavor and antimicrobial compounds” (Takasago International Corporation, priority 1999, dated 2000).

In brackets after ≈: the same amount, converted by molar mass. Like-named read-outs stand apart in the source and are kept apart here. Some results are limits rather than exact numbers.

One assay deals with Escherichia coli. The experiment in a line: MIC, E. coli (Table 2). The class given is cell-based. The note with it: read-out: Anti-Microbial Activity MIC, E. c. The procedure: (§1) Anti-Microbial Activity of Examples 1-6 (MIC in μg/mL)
(§2) Antimicrobial activity was evaluated to determine minimal inhibitory concentration ("MIC") and Minimal Bactericidal Concentration ("MBC"). The specific biological testing protocol is published R. Kang et al., "J. Agric. Food Chem.," vol. 40 pp. 2328-2330 (1994), the entirety of which is herein incorporated by reference.

Assay [1] relates to Corynebacterium minutissimum. The experiment in a line: MIC, C. minutissimum (Table 1). The following applies: read-out: Anti-Microbial Activity MIC, C. m. The class given is cell-based. How it is done:
(§3) The anti-microbial activity of Examples 1-6 were evaluated.
as §1, §2

The next assay concerns Candida albicans. The experiment in a line: MIC, C. albicans (Table 2). The class given is cell-based. The following applies: read-out: Anti-Microbial Activity MIC, C. a. The procedure: as §1, §2
Assay [2] relates to Staphylococcus epidermidis. The experiment in a line: MIC, S. epidermidis (Table 1). The note with it: read-out: Anti-Microbial Activity MIC, S. e. The class given is cell-based. How it is done:
as §3, §1, §2

A further assay has as its system Corynebacterium xerosis. In words: MIC, C. xerosis (Table 1). The class given is cell-based. The note with it: read-out: Anti-Microbial Activity MIC, C. x. How it is done:
as §3, §1, §2

In the next assay the test system is Steptococcus mutans. In words: MIC, S. mutans (Table 1). The class given is cell-based. The following applies: Streptococcus mutans, read-out: Anti-Microbial Activity MIC, S. m. How it is done: as §3, §1, §2
Another assay concerns Staphylococcus aureus. In words: MIC, S. aureus (Table 1). The class given is cell-based. The note with it: read-out: Anti-Microbial Activity MIC, S. a. How it is done:
as §3, §1, §2

A further assay has as its system Actinomyces neaslundii. The experiment in a line: MIC, A. neaslundii (Table 1). The class given is cell-based. The note with it: read-out: Anti-Microbial Activity MIC, A. neasl. The procedure:
as §3, §1, §2

The next assay concerns Pseudomonas aeruginosa. The experiment in a line: MIC, P. aeruginosa (Table 2). The class given is cell-based. The note with it: read-out: Anti-Microbial Activity MIC, P. aerug. The procedure:
as §1, §2

Another assay relates to Propionibacterium acnes. In words: MIC, P. acnes (Table 1). The class given is cell-based. The note with it: Cutibacterium acnes, read-out: Anti-Microbial Activity MIC, P. acnes. How it is done: as §3, §1, §2
The next assay relates to Aspergillus niger. The experiment in a line: MIC, A. niger (Table 2). The class given is cell-based. The following applies: read-out: Anti-Microbial Activity MIC, A. niger. How it is done: as §1, §2
Assay [3] relates to bacteria involved in upper respiratory tract infections. The note with it: N. Didry et al. 1993; cited from earlier work.
The next assay deals with oral bacteria. The following applies: N. Didry et al. 1994; cited from earlier work.
Setting [4] is: C. minutissimum strain 23348, gram+.
Where [5] appears, read: C. albicans strain 10231, fungi.
Setting [6] is: S. epidermidis strain 1228, gram+.
[7] abbreviates: A. neaslundii strain 19039, gram+.
Setting [8] is: P. aeruginosa strain 15442, gram -.

Broadly, the MIC is the least concentration at which growth counts as inhibited. With `CCCc1cc(C)c(O)cc1C(C)C` [Example 4b, Para Propyl Carvacrol], the MIC in the assay on Escherichia coli (E. coli strain 11229, gram -) is greater than 1000 µg/mL; in assay [1] (setting [4]), no more than 15.6 µg/mL; in the assay on Candida albicans (setting [5]), 62.5 µg/mL (≈ 325 µM); in [2] (setting [6]), 31.2 µg/mL (≈ 163 µM); with Corynebacterium xerosis (C. xerosis strain 373, gram+), no more than 15.6 µg/mL; in the assay with Steptococcus mutans (S. mutans strain 25175, gram+), no more than 15.6 µg/mL. Further, the MIC in the assay on Staphylococcus aureus (S. aureus strain 6535, gram+) is no more than 15.6 µg/mL; in the assay on Actinomyces neaslundii (setting [7]), no more than 15.6 µg/mL; in the assay on Pseudomonas aeruginosa (setting [8]), greater than 1000 µg/mL; in the assay on Propionibacterium acnes (P. acnes strain 6919, gram+), no more than 15.6 µg/mL; in the assay on Aspergillus niger (A. niger strain 16404, fungi) it was 62.5 µg/mL (≈ 325 µM).
Take `C=CCc1cc(C(C)(C)C)ccc1O` [Example 5, Ortho Allyl Para tert-Butyl Phenol]: the MIC in the assay with Escherichia coli (E. coli strain 11229, gram -) was greater than 500 µg/mL; in [1] (setting [4]), 31.2 µg/mL (≈ 164 µM); in assay [2] (setting [6]), 31.2 µg/mL (≈ 164 µM); in the assay on Corynebacterium xerosis (C. xerosis strain 373, gram+) it was 31.2 µg/mL (≈ 164 µM); in the assay on Staphylococcus aureus (S. aureus strain 6535, gram+) it was 31.2 µg/mL (≈ 164 µM); in the assay with Propionibacterium acnes (P. acnes strain 6919, gram+) it was 15.6 µg/mL (≈ 82 µM).
Take `CCCc1cc(C(C)(C)C)ccc1O` [Example 6, Ortho Propyl Para tert-Butyl Phenol]: the MIC is greater than 500 µg/mL in the assay with Escherichia coli (E. coli strain 11229, gram -); 15.6 µg/mL (≈ 81.1 µM) in assay [1] (setting [4]); 15.6 µg/mL (≈ 81.1 µM) in [2] (setting [6]); 15.6 µg/mL (≈ 81.1 µM) in the assay on Corynebacterium xerosis (C. xerosis strain 373, gram+); 15.6 µg/mL (≈ 81.1 µM) with Staphylococcus aureus (S. aureus strain 6535, gram+); 7.8 µg/mL (≈ 40.6 µM) with Propionibacterium acnes (P. acnes strain 6919, gram+).
As to `Cc1ccc(C(C)C)c(O)c1` [Thymol, thymol, reference compound], the MIC was 250 µg/mL (≈ 1660 µM) in the assay on Escherichia coli (E. coli strain 11229, gram -); 125 µg/mL (≈ 832 µM) in assay [1] (setting [4]); 250 µg/mL (≈ 1660 µM) with Candida albicans (setting [5]); 250 µg/mL (≈ 1660 µM) in assay [2] (setting [6]); 250 µg/mL (≈ 1660 µM) in the assay with Corynebacterium xerosis (C. xerosis strain 373, gram+); 250 µg/mL (≈ 1660 µM) in the assay with Steptococcus mutans (S. mutans strain 25175, gram+). Further, the MIC in the assay on Staphylococcus aureus (S. aureus strain 6535, gram+) was 250 µg/mL (≈ 1660 µM); with Actinomyces neaslundii (setting [7]) it was 125 µg/mL (≈ 832 µM); in the assay with Pseudomonas aeruginosa (setting [8]), greater than 1000 µg/mL; in the assay with Propionibacterium acnes (P. acnes strain 6919, gram+), 125 µg/mL (≈ 832 µM); in the assay with Aspergillus niger (A. niger strain 16404, fungi), 125 µg/mL (≈ 832 µM). Further, in assay [3], the “antimicrobial activity in several in vitro methods” value (from here on “antimicrobial activity in several”) is reported as “broad spectrum activity”. Also, in the assay on oral bacteria, the “inhibitory activity on several microorganisms” value (“inhibitory activity” below) is reported as “showed an inhibitory activity on several microorganisms”.
For the molecule `Cc1ccc(C(C)C)cc1O` [carvacrol, reference compound], the MIC was determined as 500 µg/mL (≈ 3330 µM) in the assay on Escherichia coli; 125 µg/mL (≈ 832 µM) in assay [1]; 250 µg/mL (≈ 1660 µM) in the assay on Candida albicans; 125 µg/mL (≈ 832 µM) in assay [2]; 125 µg/mL (≈ 832 µM) in the assay on Corynebacterium xerosis; 125 µg/mL (≈ 832 µM) with Steptococcus mutans. Further, the MIC in the assay on Staphylococcus aureus was 125 µg/mL (≈ 832 µM); with Actinomyces neaslundii it was 125 µg/mL (≈ 832 µM); in the assay with Pseudomonas aeruginosa, greater than 1000 µg/mL; in the assay on Propionibacterium acnes, 125 µg/mL (≈ 832 µM); with Aspergillus niger it was 250 µg/mL (≈ 1660 µM). Also, the “antimicrobial activity in several” value in assay [3] was “broad spectrum activity”. In addition, the “inhibitory activity” value with oral bacteria is “showed an inhibitory activity on several microorganisms”.
Turning to `O=CC=Cc1ccccc1` [cinnamaldehyde], the “antimicrobial activity in several” value in assay [3] is reported as “broad spectrum activity”. The “inhibitory activity” value in the assay with oral bacteria is on record as “showed an inhibitory activity on several microorganisms”.
In the case of `C=CCc1ccc(O)c(OC)c1` [eugenol], the “inhibitory activity” value in the assay on oral bacteria is “showed an inhibitory activity on several microorganisms”.
